“Also recorded” adds a separate entry of the source.
What was measured:
[1] = system: H460 cells; experiment: Cell proliferation assay (MTS/PMS), H460 cells; type: cell-based; settings: H460 cell line (printed H4609 in b565); 72 h at 37 °C
Protocol: (§1) Cell Culture. H460 cells and HeLa S3 cells were purchased from American Type Culture Collection (ATCC). H460 cells were maintained in RPMI-1640 medium supplemented with 10% fetal bovine serum (FBS). HeLa S3 cells were maintained in Dulbecco's Modified Eagle's Medium supplemented with 10% fetal bovine serum (FBS).
(§2) Cell Proliferation Assay. A solution of H460 or HeLa S3 cells (3000 cells/well) in growth medium was seeded onto a 96-well plate. The 96-well plate was incubated for 24 h at 37° C. Stock solutions of each compound were serially diluted and administrated to cells to achieve final concentrations of 38 nM to 83 μM (DC-45-A2 and iso-DC-45-A2) or 3.4 nM to 7.5 μM (dideoxy-DC-45-A2). After incubating at 37° C. for 72 h, 20 μL of MTS/PMS solution (Promega CellTiter 96® Aqueous Non-Radioactive Cell Proliferation Assay) was added to each well. After incubating at 37° C. for 3.5 h, the absorbance at 490 nm was recorded using a microplate reader (SpectraMax PLUS384) as a measure of viable cells. Percent growth inhibition was calculated for each well based upon the following formula: percent growth inhibition=100×(C−T)/C, where T is the absorbance of the well containing the test compound minus the average absorbance of wells containing media alone, and C is the average absorbance of wells containing vehicle control-treated cells minus the average absorbance of wells containing media alone. […]

[2] = system: HeLa S3 cells; experiment: Cell proliferation assay (MTS/PMS), HeLa S3 cells; type: cell-based; settings: HeLa cell line; 72 h at 37 °C
Protocol: as §1, §2

[3] = system: self-complementary duplex 12-mer d(AATTACGTAATT) (SEQ ID NO: 1); experiment: DNA alkylation detected by LC/MS; type: biochemical; settings: for covalent DNA-small molecule complex formed (LC/MS chromatogram): oligonucleotide 100 μM, 1 equiv compound, pH 7 buffer; for products from alkylated oligonucleotide after piperidine treatment: 1.0 M piperidine, 30 minutes at 95 °C
Source text: Next, we performed a set of experiments to determine whether the DC-45-A2 and dideoxy-DC-45-A2 complexes observed by DNA-gel electrophoresis were covalent or not. A liquid chromatography-mass spectrometry (LC/MS) method was developed for the detection of DNA oligonucleotides and covalent DNA-small molecule complexes. The mass spectrometer was used in a negative ion mode under conditions that had been optimized for the detection of single-stranded nucleic acids.
To solutions of the oligonucleotide d(AATTACGTAATT) (SEQ ID NO: 1) (100 μM) in pH 7 buffer were added, in three separate reaction vials, 1 equiv of DC-45-A2, 1 equiv of iso-DC-45-A2, or 1 equiv of dideoxy-DC-45-A2. After incubation for 24 h at 23° C., it was evident from the LC/MS chromatogram that a covalent DNA-small molecule complex had formed in both the DC-45-A2 and dideoxy-DC-45-A2 reaction mixtures but not in the iso-DC-45-A2 reaction mixture (FIG. 13). The alkylated single-stranded oligonucleotide eluted as a signal that was separate from the non-alkylated oligonucleotide. […] The absence of an iso-DC-45-A2 complex is consistent with the absence of reactivity of this compound towards the oligonucleotide under the alkylation conditions in the DNA-gel experiment described in the section above. The IC50 values of the three compounds in antiproliferative assays are also depicted in FIG. 13.
To test whether or not alkylation by DC-45-A2 and dideoxy-DC-45-A2 occurs at the N7 guanine site via the same epoxide opening mechanism observed for trioxacarcin A, we treated samples of alkylated oligonucleotide with piperidine to provide a product solution with a final concentration of 1.0 M in piperidine. […] This fragmentation is consistent with induced single strand cleavage of the type observed in the Maxam-Gilbert G-specific reaction that is associated with N7 guanine alkylation. In the present case, the guanine residue has been excised and the phosphates at the 3′ and 5′ positions have been eliminated to give the two fragment strands.
General Method: To a solution of dsDNA [ds(AATTACGTAATT) (SEQ ID NO: 1), 1.07 mM] in alkylation buffer (86.7 μL, see above for preparation of solutions) in a 1.7-mL centrifuge tube was added a solution of DC-45-A2 in DMSO (2.00 μL, 5 mM). The sample was votexed, then rotated end-over-end at 23° C. for 2 h. The sample was stored at 4° C. for 16 h. The sample was diluted to a concentration of 5 μM of dsDNA. A 10 μL sample of the diluted solution was injected into a short oligonucleotide column (gradient elution with […] TEAB buffer and methanol, flow rate 150 μL/min) and the column output was monitored by mass spectrometry in a negative ionization mode. The doubly deionized DC-45-A2-alkylated single-stranded DNA oligonucleotide (mass/charge=2079.4) was detected at 9.32 min.
To five separate solutions (designated as vials 1-5) of duplex DNA oligonucleotide d(AATTACGTAATT) (SEQ ID NO: 1) (0.72 mM [concentration of the DNA duplex] in alkylation buffer [see paragraph above for preparation], 13.9 μL, 10 nmol, 1 equiv) in alkylation buffer (84.1 μL) were added, respectively, DC-45-A2 (5.0 mM solution in dimethylsulfoxide, 2.0 μL, 10 nmol, 1.0 equiv, vials 1 and 2), iso-DC-45-A2 (5.0 mM solution in dimethylsulfoxide, 2.0 μL, 10 nmol, 1.0 equiv, vial 3), and dideoxy-DC-45-A2 (5.0 mM solution in dimethylsulfoxide, 2.0 μL, 10 nmol, 1.0 equiv, vials 4 and 5). The samples were vortexed, then rotated end-over-end at 23° C. After 23 h 30 min, vials 2 and 5 were diluted with piperidine (10 μL) and placed in a heating block at 95° C. After 30 min, vials 2 and 5 were cooled by centrifugation for 30 seconds (VWR Labnet C-1200 Minicentrifuge). After a total reaction time of 24 h, a 5-μL aliquot was removed from each of the five reaction mixtures. Each aliquot was diluted with alkylation buffer (95 μL, see above for preparation). […]

[4] = Water solubility; settings: attenuated by saturation with sodium chloride
[5] = system: self-complementary duplex 12-mer d(AATTACGTAATT) (SEQ ID NO: 1); experiment: DNA alkylation detected by non-denaturing DNA-gel electrophoresis with in-gel fluorescence; type: biochemical; settings: oligonucleotide 100 μM; at the lowest concentration of DC-45-A2 (printed 1 mM); 3 h at 23 °C

Compound: COc1c2c(c(O)c3c4c(c(C)cc13)[C@H]1O[C@]3(C(OC)OC)O[C@H]1[C@](O)(O4)[C@@]31CO1)C(=O)[C@@H](O)C[C@@H]2O [iso-DC-45-A2, 11,12,13,15-tetraepi-DC-45-A2]
- IC50, growth inhibition [1]: inactive
- IC50, growth inhibition [2]: inactive
- covalent DNA-small molecule complex formed (LC/MS chromatogram) ([3]; 24 h at 23 °C): not

Compound: Dideoxy-DC-45-A2
- products from alkylated oligonucleotide after piperidine treatment [3]: pTAATT and AATTACp
- relative abundance of the covalent complex ([3]; 24 h at 23 °C, compared with DC-45-A2 complex): greater relative abundance
- covalent DNA-small molecule complex formed (LC/MS chromatogram) ([3]; 24 h at 23 °C): had formed

Compound: DC-45-A2
- water solubility [4]: appreciable water solubility
- IC50, growth inhibition [1]: micromolar; also recorded: submicromolar
- IC50, growth inhibition [2]: micromolar; also recorded: submicromolar
- fluorescent DC-45-A2-DNA complex, in-gel fluorescence prior to ethidium bromide staining [5]: clearly observed
- products from alkylated oligonucleotide after piperidine treatment [3]: pTAATT and AATTACp
- covalent DNA-small molecule complex formed (LC/MS chromatogram) ([3]; 24 h at 23 °C): had formed

Source: patent US9102697B2, “Trioxacarcins and uses thereof” (President and Fellows of Harvard College, priority 2010, dated 2015)
